Read-outs that look alike come from different tables or passages of the source.
Columns and labels:
KM12 = assay: Cell proliferation assay (CellTiter-Glo, 96 h), KM12; type: cell-based; settings: Homo sapiens, 96-hour incubation
Procedure: (§1) In accordance with the invention, the substances were tested in cell-based assays for the ability of the substances of inhibiting tumour cell proliferation after a 96-hour incubation with the substance. Cell viability was tested using the CellTiter-Glo® luminescent cell viability assay (Promega). The cells were sown at a density of 2000-5000 cells/well (depending on the cell line) in 100 μl growth medium on 96-well microtitre plates. For each cell line examined, cells were sown on a separate plate to determine the luminescence at t=0 hours and t=96 hours. After overnight incubation at 37° C., the luminescence values for the t=0 samples were determined. The dose plates for the t=96 hours points in time were treated with substances diluted with growth medium. The cells were then incubated at 37° C. for 96 hours, and the luminescence values for the t=96 hours sample were then determined. For data analysis, the t=0 values were subtracted from the t=96 hour values for treated and untreated samples. The differences in luminescence in percent between substance-treated samples and control values were used to determine the growth inhibition in percent.
(§2) The substances were tested in the following cell lines which represent the stated indications in an exemplary manner: […]

[1] = biological target: T1, human ACC1 (acetyl-coenzyme A carboxylase alpha transcript variant 1) (Homo sapiens, UniProt Q13085); assay: Human ACC1 enzyme assay, Assay B1 (ADP-Glo); type: biochemical
T1 construct: FLAG (C); made in house; host or cells: baculovirus-infected insect cells (Hi5)

[2] = biological target: human ACC2 (acetyl-coenzyme A carboxylase 2) (Homo sapiens, UniProt O00763); assay: Human ACC2 enzyme assay, Assay B2 (ADP-Glo);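 note: human ACC2 activity read as ADP product, detected by luciferase glow luminescence after residual ATP removal, enzyme near 2 ng/µl in linear range, detection steps at 22 °C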
MCF7 = assay: Cell proliferation assay (CellTiter-Glo, 96 h), MCF7; type: cell-based; settings: Homo sapiens
Summary of the method: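 Tumour cells are plated overnight, a baseline luminescence plate is read, and parallel plates receive compound for 96 hours at 37° C. before CellTiter-Glo measurement. Percent inhibition uses baseline-subtracted values relative to untreated cells.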

[3] = biological target: acetyl-CoA carboxylase 2 (ACC2) (Homo sapiens, UniProt O00763); assay: Human ACC2 enzyme assay, Assay A2 (HTRF ADP immunoassay);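 note: ADP generated by ACC2 quantified via competitive time-resolved FRET between europium cryptate anti-ADP antibody and d2-tagged ADP, enzyme kept in linear range near 0.6 ng/µl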
Procedure: The inhibitory activity of the substances of this invention with regard to acetyl-CoA carboxylase 2 (ACC2) was measured using the ACC2 assay described in the paragraphs below. The basic principle of the assay is the measurement of adenosine diphosphate (ADP), which is formed as a by-product, by means of an HTRF®-based competitive immunoassay (HTRF=Homogeneous Time Resolved Fluorescence).
The amount of complex of d2-labelled ADP and europium cryptate-labelled anti-ADP antibody was then determined by measuring the resonance energy transfer of europium cryptate to d2.

recombinant human ACC1 = recombinant human ACC1 (Homo sapiens, UniProt Q13085); assay: Human ACC1 enzyme assay, Assay A1 (HTRF ADP immunoassay);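 note: ADP generated by the enzyme quantified via competitive time-resolved FRET, read as europium cryptate to d2 energy transfer after 1 h at 22 °C with labelled ADP tracer and anti-ADP antibody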
HCC-1937 = assay: Cell proliferation assay (CellTiter-Glo, 96 h), HCC-1937; type: cell-based; settings: Homo sapiens, HCC1937
Procedure: as §1, §2

MDA-MB-436 = assay: Cell proliferation assay (CellTiter-Glo, 96 h), MDA-MB-436; type: cell-based; settings: Homo sapiens
Procedure: as §1, §2

[4] = test system: malonyl-CoA in a tumour (human MCF-7 breast cancer cells); assay: Mode-of-action experiment: intratumour malonyl-CoA in MCF-7 tumours after oral administration; type: in vivo, female nude mice (NMRI-nude (nu/nu)); settings: Mus musculus, after 7 h
Procedure: Mode-of-Action Experiment
Prior to the determination of the activity in the MCF-7 model, some of the test substances were examined in a “mode of action” experiment. The principle of this experiment is that short-term application of a test substance capable of inhibiting ACC1 and/or ACC2 in a living organism after oral administration reduces malonyl-CoA in a tumour. To this end, in the experiment 2 million human MCF-7 breast cancer cells were injected subcutaneously into female nude mice (NMRI-nude (nu/nu) mice, Taconic M&B A/S, 1 day beforehand administration of a pellet for the release of oestrogen over a period of at least 60 days). Once the tumour extended to an area of about 60-70 mm^2, the test substance was administered orally over a period of 1-3 days, and at defined points in time the intratumour content of malonyl-CoA was then determined and compared to the vehicle control. The method is described in Anal Chem 2008 Aug. 1; 80(15):5736-42. Epub 2008 Jul. 9.).

Miapaca = assay: Cell proliferation assay (CellTiter-Glo, 96 h), Miapaca; type: cell-based; settings: Homo sapiens, MIA PaCa-2
Procedure: as §1, §2

MDA-MB-468 = assay: Cell proliferation assay (CellTiter-Glo, 96 h), MDA-MB-468; type: cell-based; settings: Homo sapiens
Procedure: as §1, §2

[5] = MCF7, Table 7, 96-hour incubation
[6] = Assay B1, read-out: ACC 1 (=B1) IC50
[7] = MCF7, 10 mg/kg oral, MCF-7 tumour in nude mice, vs vehicle

Chain of human ACC2 (acetyl-coenzyme A carboxylase 2) (O00763 27-2458 limits assumed): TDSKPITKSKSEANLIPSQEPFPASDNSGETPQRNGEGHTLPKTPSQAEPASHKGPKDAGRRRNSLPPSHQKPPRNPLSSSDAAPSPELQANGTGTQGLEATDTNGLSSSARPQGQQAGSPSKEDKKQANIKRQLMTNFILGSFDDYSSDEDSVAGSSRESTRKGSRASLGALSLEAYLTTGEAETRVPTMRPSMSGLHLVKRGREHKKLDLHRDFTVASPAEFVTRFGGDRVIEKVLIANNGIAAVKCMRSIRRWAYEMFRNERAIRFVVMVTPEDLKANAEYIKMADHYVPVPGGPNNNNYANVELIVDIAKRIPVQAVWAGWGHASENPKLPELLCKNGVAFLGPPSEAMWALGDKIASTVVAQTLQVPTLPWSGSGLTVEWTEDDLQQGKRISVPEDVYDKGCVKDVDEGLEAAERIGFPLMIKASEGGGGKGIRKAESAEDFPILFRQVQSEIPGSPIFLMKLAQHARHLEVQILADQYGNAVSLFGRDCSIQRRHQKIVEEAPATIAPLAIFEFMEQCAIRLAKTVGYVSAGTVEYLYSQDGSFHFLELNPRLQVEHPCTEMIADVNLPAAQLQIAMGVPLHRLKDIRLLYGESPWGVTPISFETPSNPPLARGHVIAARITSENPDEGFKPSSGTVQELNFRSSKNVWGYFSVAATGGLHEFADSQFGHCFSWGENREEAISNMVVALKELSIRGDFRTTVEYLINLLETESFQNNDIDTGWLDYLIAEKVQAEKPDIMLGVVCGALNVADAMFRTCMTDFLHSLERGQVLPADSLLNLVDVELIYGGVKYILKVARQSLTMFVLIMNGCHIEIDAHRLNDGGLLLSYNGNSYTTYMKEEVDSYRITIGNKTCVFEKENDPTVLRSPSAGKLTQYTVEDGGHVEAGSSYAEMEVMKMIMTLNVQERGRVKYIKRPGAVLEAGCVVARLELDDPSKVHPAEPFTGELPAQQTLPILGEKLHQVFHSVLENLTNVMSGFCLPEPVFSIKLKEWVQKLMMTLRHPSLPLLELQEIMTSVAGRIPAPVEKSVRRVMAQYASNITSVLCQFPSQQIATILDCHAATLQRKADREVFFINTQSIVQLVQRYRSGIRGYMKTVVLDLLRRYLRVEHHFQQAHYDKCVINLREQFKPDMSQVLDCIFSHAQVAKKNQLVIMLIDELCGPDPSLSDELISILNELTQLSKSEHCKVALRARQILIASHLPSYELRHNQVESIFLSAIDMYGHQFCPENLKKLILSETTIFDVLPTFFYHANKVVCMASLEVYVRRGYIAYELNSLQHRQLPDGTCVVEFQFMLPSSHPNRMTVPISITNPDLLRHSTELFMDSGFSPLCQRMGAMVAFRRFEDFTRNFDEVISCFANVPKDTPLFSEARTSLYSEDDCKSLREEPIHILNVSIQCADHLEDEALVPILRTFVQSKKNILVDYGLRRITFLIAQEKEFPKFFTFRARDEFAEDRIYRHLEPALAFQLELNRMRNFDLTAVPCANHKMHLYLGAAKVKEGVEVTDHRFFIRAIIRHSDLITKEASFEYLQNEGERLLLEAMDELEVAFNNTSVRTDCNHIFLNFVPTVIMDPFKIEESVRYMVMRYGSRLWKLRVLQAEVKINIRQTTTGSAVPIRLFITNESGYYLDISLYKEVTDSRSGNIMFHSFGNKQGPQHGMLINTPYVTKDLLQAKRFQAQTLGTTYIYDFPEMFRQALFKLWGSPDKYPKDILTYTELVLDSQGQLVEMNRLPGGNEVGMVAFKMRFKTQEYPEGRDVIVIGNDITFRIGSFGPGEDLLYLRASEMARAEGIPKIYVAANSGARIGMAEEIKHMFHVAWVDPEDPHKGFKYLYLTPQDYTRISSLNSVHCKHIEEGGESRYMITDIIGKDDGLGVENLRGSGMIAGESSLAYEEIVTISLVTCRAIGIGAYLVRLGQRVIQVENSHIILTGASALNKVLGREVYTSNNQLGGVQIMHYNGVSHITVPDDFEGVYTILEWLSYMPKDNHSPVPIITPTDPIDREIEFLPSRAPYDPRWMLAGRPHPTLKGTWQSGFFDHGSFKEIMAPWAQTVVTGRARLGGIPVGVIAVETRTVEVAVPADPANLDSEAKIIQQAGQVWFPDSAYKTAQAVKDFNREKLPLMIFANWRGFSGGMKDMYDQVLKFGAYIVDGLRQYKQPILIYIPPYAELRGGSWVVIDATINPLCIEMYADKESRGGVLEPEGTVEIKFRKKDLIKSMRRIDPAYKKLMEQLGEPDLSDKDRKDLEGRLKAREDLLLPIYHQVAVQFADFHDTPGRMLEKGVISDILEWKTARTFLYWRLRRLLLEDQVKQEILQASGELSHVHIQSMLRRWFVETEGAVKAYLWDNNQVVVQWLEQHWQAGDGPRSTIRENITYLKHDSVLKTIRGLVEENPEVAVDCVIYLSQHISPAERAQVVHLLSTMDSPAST
Chain of acetyl-CoA carboxylase 2 (ACC2) (O00763 39-2458 limits assumed): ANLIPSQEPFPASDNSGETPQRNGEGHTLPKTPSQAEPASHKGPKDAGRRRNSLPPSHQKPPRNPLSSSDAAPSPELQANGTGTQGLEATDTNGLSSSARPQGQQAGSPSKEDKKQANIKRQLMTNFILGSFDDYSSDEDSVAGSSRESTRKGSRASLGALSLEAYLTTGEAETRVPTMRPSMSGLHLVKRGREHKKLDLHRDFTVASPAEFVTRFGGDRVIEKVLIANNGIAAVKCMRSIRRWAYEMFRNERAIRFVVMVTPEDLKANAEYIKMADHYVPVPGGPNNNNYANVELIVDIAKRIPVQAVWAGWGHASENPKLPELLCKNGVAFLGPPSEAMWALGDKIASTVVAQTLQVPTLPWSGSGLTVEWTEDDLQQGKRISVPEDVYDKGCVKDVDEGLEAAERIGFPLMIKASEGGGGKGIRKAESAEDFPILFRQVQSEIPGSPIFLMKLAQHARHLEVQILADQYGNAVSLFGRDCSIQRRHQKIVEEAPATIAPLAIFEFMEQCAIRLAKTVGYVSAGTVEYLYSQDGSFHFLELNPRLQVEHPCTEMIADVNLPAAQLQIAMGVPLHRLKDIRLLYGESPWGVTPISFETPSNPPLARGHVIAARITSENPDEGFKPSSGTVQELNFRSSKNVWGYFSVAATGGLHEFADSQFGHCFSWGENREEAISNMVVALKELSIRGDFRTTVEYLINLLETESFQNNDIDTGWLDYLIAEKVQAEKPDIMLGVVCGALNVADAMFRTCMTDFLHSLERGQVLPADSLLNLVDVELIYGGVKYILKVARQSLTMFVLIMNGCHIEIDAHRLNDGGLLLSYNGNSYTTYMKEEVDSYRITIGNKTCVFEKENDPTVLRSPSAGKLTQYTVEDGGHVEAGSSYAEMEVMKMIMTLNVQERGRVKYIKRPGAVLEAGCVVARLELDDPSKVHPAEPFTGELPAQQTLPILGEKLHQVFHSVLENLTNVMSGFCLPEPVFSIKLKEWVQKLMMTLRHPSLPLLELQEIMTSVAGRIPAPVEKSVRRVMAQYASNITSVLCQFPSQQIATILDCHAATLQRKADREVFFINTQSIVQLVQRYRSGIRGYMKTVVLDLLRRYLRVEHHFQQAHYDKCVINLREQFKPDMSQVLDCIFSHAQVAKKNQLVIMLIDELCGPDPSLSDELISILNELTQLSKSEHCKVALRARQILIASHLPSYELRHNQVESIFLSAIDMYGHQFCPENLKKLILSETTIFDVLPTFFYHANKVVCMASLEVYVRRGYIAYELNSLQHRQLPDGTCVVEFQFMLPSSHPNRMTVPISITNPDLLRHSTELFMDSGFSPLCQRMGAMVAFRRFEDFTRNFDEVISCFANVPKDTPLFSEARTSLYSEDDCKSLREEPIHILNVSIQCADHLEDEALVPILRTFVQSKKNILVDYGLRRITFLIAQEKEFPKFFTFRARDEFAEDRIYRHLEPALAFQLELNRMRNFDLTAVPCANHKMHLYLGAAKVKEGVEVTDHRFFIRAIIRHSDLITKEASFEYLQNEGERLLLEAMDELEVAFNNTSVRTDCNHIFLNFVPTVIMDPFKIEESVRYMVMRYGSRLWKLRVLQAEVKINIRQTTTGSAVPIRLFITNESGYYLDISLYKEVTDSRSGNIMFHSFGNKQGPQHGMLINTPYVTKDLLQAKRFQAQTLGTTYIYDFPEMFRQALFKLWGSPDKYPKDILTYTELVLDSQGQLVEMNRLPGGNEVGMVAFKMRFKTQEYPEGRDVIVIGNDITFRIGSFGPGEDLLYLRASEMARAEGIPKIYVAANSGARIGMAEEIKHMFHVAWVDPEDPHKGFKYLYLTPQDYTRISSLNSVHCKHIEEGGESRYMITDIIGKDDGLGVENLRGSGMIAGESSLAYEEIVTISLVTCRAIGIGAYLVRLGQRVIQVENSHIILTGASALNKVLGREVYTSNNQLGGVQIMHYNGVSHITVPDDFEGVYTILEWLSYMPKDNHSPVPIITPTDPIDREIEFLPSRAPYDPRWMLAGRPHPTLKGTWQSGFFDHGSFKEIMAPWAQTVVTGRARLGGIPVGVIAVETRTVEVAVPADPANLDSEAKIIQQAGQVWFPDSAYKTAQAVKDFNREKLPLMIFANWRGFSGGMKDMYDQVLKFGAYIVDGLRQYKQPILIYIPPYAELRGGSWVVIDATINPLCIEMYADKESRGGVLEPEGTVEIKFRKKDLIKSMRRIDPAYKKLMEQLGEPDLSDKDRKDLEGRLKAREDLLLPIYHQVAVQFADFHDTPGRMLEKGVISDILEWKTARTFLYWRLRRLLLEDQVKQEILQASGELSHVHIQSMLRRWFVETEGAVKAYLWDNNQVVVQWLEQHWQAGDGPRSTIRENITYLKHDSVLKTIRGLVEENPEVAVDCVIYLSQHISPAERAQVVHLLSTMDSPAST

Structure (SMILES) | IC50 [1] [nM] | IC50 [2] [nM] | IC50 (MCF7; [5]) [nM] | inhibition in vivo at 10 mg/kg ([4]; MCF7, po, 10 mg/kg, vs Vehicle) [%] | further results
COC[C@H]1CC[C@]2(CC1)NC(=O)C(c1cc(-c3ccc(F)c(F)c3)ccc1C)=C2O [1-112, (5s,8s)-3-(3′,4′-Difluoro-4-methylbiphenyl-3-yl)-4-hydroxy-8-(methoxymethyl)-1-azaspiro[4.5]dec-3-en-2-one] | 200 | 8430 | 79 |  | IC50 (KM12): 174 nM; IC50 [3]: 3.91 µM; IC50 (recombinant human ACC1): 167 nM
Cc1ccc(-c2ccc(Cl)cc2)cc1C1=C(O)C2(CCC(OCC(F)(F)F)CC2)NC1=O (centres unmarked) [1-33, 3-(4′-chloro-4-methylbiphenyl-3-yl)-4-hydroxy-8-(2,2,2-trifluoroethoxy)-1-azaspiro[4.5]dec-3-en-2-one] |  | 2010 | 27 | 88 | IC50 [1, 6]: 234 nM; IC50 (HCC-1937; 96-hour incubation): 108 nM; IC50 (MDA-MB-436; MDA-MB-436, 96-hour incubation): 70 nM; IC50 (Miapaca; 96-hour incubation): 193 nM; IC50 (MDA-MB-468; MDA-MB-468, 96-hour incubation): 74 nM
O=C1N[C@]2(CC[C@@H](OCC(F)(F)F)CC2)C(O)=C1c1cc(-c2ccc(Cl)cc2)ccc1Cl [1-29, (5s,8s)-3-(4,4′-dichlorobiphenyl-3-yl)-4-hydroxy-8-(2,2,2-trifluoroethoxy)-1-azaspiro[4.5]dec-3-en-2-one] | 153 | 2620 | 32 | 93 | IC50 (KM12): 132 nM
Cc1ccc(-c2ccc(Cl)cc2)c(C)c1C1=C(O)[C@]2(CC[C@H](OCC(F)(F)F)CC2)NC1=O [1-30, (5s,8s)-3-(4′-chloro-2,4-dimethylbiphenyl-3-yl)-4-hydroxy-8-(2,2,2-trifluoroethoxy)-1-azaspiro[4.5]dec-3-en-2-one] |  | 976 | 48 | 82 | IC50 [1, 6]: 481 nM
COCC1CCC2(CC1)NC(=O)C(c1c(C)ccc(-c3ccc(Cl)cc3)c1C)=C2O (centres unmarked) [1-53, 3-(4′-chloro-2,4-dimethylbiphenyl-3-yl)-4-hydroxy-8-(methoxymethyl)-1-azaspiro[4.5]dec-3-en-2-one] | 243 | 632 | 70 | 43 | 
COCC1CCC2(CC1)NC(=O)C(c1cc(-c3ccc(Cl)cc3)ccc1Cl)=C2O (centres unmarked) [1-54, 3-(4,4′-dichlorobiphenyl-3-yl)-4-hydroxy-8-(methoxymethyl)-1-azaspiro[4.5]dec-3-en-2-one] | 157 | 1350 | 88 | 61 | 
Cc1ccc(-c2ccc(Cl)cc2)cc1C1=C(O)C2(CCOCC2)NC1=O [1-6, 3-(4′-chloro-4-methylbiphenyl-3-yl)-4-hydroxy-8-oxa-1-azaspiro[4.5]dec-3-en-2-one] | 133 | 9340 | 209 | 68 | IC50 (HCC-1937; 96-hour incubation): 873 nM; IC50 (MDA-MB-436; MDA-MB-436, 96-hour incubation): 313 nM; IC50 (Miapaca; 96-hour incubation): 1250 nM; IC50 (MDA-MB-468; MDA-MB-468, 96-hour incubation): 555 nM
Cc1ccc(-c2ccc(Cl)cc2)c(C)c1C1=C(O)C2(CCOCC2)NC1=O [1-1, 3-(4′-chloro-2,4-dimethylbiphenyl-3-yl)-4-hydroxy-8-oxa-1-azaspiro[4.5]dec-3-en-2-one] | 245 | > 20000 | 800 | 39 | IC50 (HCC-1937; 96-hour incubation): 1080 nM; IC50 (MDA-MB-436; MDA-MB-436, 96-hour incubation): 140 nM; IC50 (Miapaca; 96-hour incubation): 827 nM; IC50 (MDA-MB-468; MDA-MB-468, 96-hour incubation): 274 nM
Cc1cc(C)c(-c2ccc(Cl)cc2)cc1C1=C(O)[C@]2(CC[C@@]3(CCCO3)CC2)OC1=O [2-30, (5r,8s)-3-(4′-chloro-4,6-dimethylbiphenyl-3-yl)-4-hydroxy-1,9-dioxadispiro[4.2.4.2]tetradec-3-en-2-one] | 696 | 243 |  |  | IC50 (MCF7; MCF7 cells): 64 nM; IC50 (HCC-1937; HCC-1937 cells): 1500 nM; IC50 (MDA-MB-436; MDA-MB-436 cells): 115 nM; inhibition in vivo at 10 mg/kg [4, 7]: 36%; IC50 (Miapaca; MiaPaca cells): 255 nM; IC50 (MDA-MB-468; MDA-MB-468 cells): 153 nM
Cc1ccc(-c2ccc(F)c(F)c2)cc1C1=C(O)C2(CCC3(CCCO3)CC2)NC1=O (centres unmarked) [1-35, 11-(3′,4′-difluoro-4-methylbiphenyl-3-yl)-12-hydroxy-1-oxa-9-azadispiro[4.2.4.2]tetradec-11-en-10-one] | 388 | 6910 | 94 | 31 | 
Cc1ccc(-c2ccc(Cl)cc2)cc1C1=C(O)C2(CCC(C)(C)CC2)NC1=O [1-20, 3-(4′-chloro-4-methylbiphenyl-3-yl)-4-hydroxy-8,8-dimethyl-1-azaspiro[4.5]dec-3-en-2-one] |  | 1130 | 40 | 87 | IC50 [1, 6]: 230 nM
Cc1ccc(-c2ccc(Cl)cc2)cc1C1=C(O)C2(CCC(OCC(F)(F)F)CC2)OC1=O (centres unmarked) [2-33, 3-(4′-chloro-4-methylbiphenyl-3-yl)-4-hydroxy-8-(2,2,2-trifluoroethoxy)-1-oxaspiro[4.5]dec-3-en-2-one] |  | 5000 |  |  | IC50 ([1]; Assay B1, ADP-Glo, read-out: ACC 1 (=B1) IC50): 227 nM; IC50 (MCF7; MCF7 cells): 246 nM; inhibition in vivo at 10 mg/kg [4, 7]: 39%
CO[C@H]1CC[C@]2(CC1)NC(=O)C(c1cc(-c3ccc(Cl)cc3)ccc1Cl)=C2O [1-120, (5s,8s)-3-(4,4′-Dichlorobiphenyl-3-yl)-4-hydroxy-8-methoxy-1-azaspiro[4.5]dec-3-en-2-one] | 145 | 2260 | 70 |  | IC50 (KM12): 714 nM; IC50 [3]: 1.28 µM; IC50 (recombinant human ACC1): 250 nM
COC1CCC2(CC1)NC(=O)C(c1cc(-c3ccc(Cl)cc3)c(C)cc1C)=C2O (centres unmarked) [1-7, 3-(4′-chloro-4,6-dimethylbiphenyl-3-yl)-4-hydroxy-8-methoxy-1-azaspiro[4.5]dec-3-en-2-one] | 1460 | 328 | 57 | 89 | 
COC1CCC2(CC1)NC(=O)C(c1cc(-c3ccc(Cl)cc3)ccc1Cl)=C2O (centres unmarked) [1-11, 3-(4,4′-dichlorobiphenyl-3-yl)-4-hydroxy-8-methoxy-1-azaspiro[4.5]dec-3-en-2-one] | 157 | 4470 | 124 | 87 | 
CO[C@]1(C)CC[C@]2(CC1)NC(=O)C(c1c(C)ccc(-c3ccc(Cl)cc3)c1C)=C2O [1-87, (5r,8r)-3-(4′-chloro-2,4-dimethylbiphenyl-3-yl)-4-hydroxy-8-methoxy-8-methyl-1-azaspiro[4.5]dec-3-en-2-one] | 378 | 10500 |  | 71 | IC50 [3]: 7.3 µM; IC50 (recombinant human ACC1): 540 nM
